Experimental data reported in patent US20080081826A1, “SYSTEM FOR EFFECTING WEIGHT LOSS” (priority 2006, published 2008).

What was measured:
[1] = test system: gastric and pancreatic lipase; details: literature; cited from earlier work
[2] = Clinical weight loss studies (historical) in overweight or obese patients, 12 or 24 weeks; format: in vivo, human patients; details: no meal replacement
Method: To conduct the studies, patients who were diagnosed as overweight or obese were chosen for clinical trials to assess weight loss as a function of prescribed meal replacements or a weight loss agent (sibutramine). Co-administration of both a weight loss agent and meal replacement was also tested.
All patients received lifestyle modification training of either a moderate (data Groups 1-9, 11, and 12) or intensive (data Group 10) character which included a patient's participation in record keeping, professional consultation, and exercise in addition to the dietary protocol. Patients placed on a “Moderate” lifestyle management program were given a diet sheet with instructions for a defined intake of daily calories ranging from 800-1600 kcal, or a 600 kcal deficit diet, with or without exercise and routine visits with the Primary Care Provider to reinforce diet and behavior modification, but relying primarily on patient self-monitoring. Patients placed on an “Intensive” lifestyle management program were given a diet sheet with a defined intake of daily calories ranging from 800-1600 kcal, or a 600 kcal deficit diet, with meals recorded in a food diary, and were provided with ongoing diet counseling and caloric adjustment according to weight loss “Intensive” patients were also given defined minimal weekly requirements for exercise and instructed to record their activities in an exercise diary that was then collected and reviewed by the Primary Care Provider. The Intensive program also included routine visits throughout the course of the study with a Dietitian and the Primary Care Provider in order to reinforce diet and behavior modification.
Patients in some groups (see Table 2, data Groups 2, 11, and 12) utilized meal replacement formulations. These individuals were given a diet sheet with a defined intake of daily calories ranging from 800-1600 kcal, or a 600 kcal deficit diet, with a meal replacement formulation taken once or twice daily instead of a food meal, and routine visits with a Primary Care Provider to reinforce diet and behavior modification, but relying primarily on patient self-monitoring.
The remainder of the patients (see Table 2, data Groups 3-11) also received daily doses of sibutramine at 10 mg/day (data Groups 3-7 and 11) or 15 mg/day (data Groups 8, 9, and 12). Individuals in data Groups 11 and 12 were given a diet sheet with a defined intake of daily calories ranging from 800-1600 kcal, or a 600 kcal deficit diet, with a meal replacement formulation (SlimFast®) taken once or twice daily instead of a food meal where applicable (see Table 2), and routine visits with a Primary Care Provider to reinforce diet and behavior modification, but relying primarily on patient self-monitoring. Patients in data Group 10 were placed on a 10 mg/day sibutramine and “Intensive” life style management regimen with no meal replacement.
In each of the studies, patients were monitored for weight loss over a 12- or 24-week period. The data groups ranged in size from 17 to 592 patients, and were placed on either a conventional diet with moderate lifestyle management program (data Group 1), or a diet including a meal replacement component including substitution of either one or two meals per day with a meal replacement formulation, as part of a moderate lifestyle management (data Group 2), or a conventional diet plus one daily dose of sibutramine (10 mg) with a moderate or intensive lifestyle management (data Groups 3-7 and 10), a conventional diet plus one daily dose of sibutramine (15 mg) with moderate lifestyle management (data Groups 8 and 9), and finally, a diet with one or two meal replacements (SlimFast®) plus one daily dose of sibutramine (10 mg) and moderate lifestyle management (data Group 11) or a diet with one or two meal replacements (SlimFast®) plus one daily dose of sibutramine (10 mg for 12 weeks followed by 15 mg for 12 weeks) (data Group 12).
All subjects received moderate or intensive lifestyle management training. […]

[3] = data Groups 8 and 9: 15 mg sibutramine + moderate lifestyle management, 24 weeks

Structure (SMILES) | fraction of the fat contained in a meal whose absorption is blocked [1] | Mean Weight Change (kg) (LOCF*) ([2]; data Group 3: sibutramine 10 mg/day, moderate lifestyle management, 12 weeks) | weight loss (lower end of range, sibutramine only) ([2]; data Group 3 as worded in text: 10 mg sibutramine/day + moderate lifestyle management, latest observation to week 12) [kg] | Mean Weight Change (kg) (LOCF*) ([2]; data Group 4: sibutramine 10 mg/day, moderate lifestyle management, 12 weeks) | mean weight loss ([2]; data Group 5: 10 mg/day sibutramine + moderate lifestyle management, latest observation to week 12) [kg] | Mean Weight Change (kg) (LOCF*) ([2]; data Group 5: sibutramine 10 mg/day, moderate lifestyle management, 12 weeks) | Mean Weight Change (kg) (LOCF*) ([2]; data Group 6: sibutramine 10 mg/day, moderate lifestyle management, 12 weeks) | Mean Weight Change (kg) (LOCF*) ([2]; data Group 7: sibutramine 10 mg/day, moderate lifestyle management, 12 weeks) | Mean Weight Change (kg) (LOCF*) ([2]; data Group 8: sibutramine 15 mg/day, moderate lifestyle management, 24 weeks) | Mean Weight Change (kg) (LOCF*) ([2]; data Group 9: sibutramine 15 mg/day, moderate lifestyle management, 24 weeks) | weight loss (upper end of range, sibutramine only) ([2]; data Group 10: 10 mg sibutramine/day + intensive lifestyle management, latest observation to week 12) [kg] | Mean Weight Change (kg) (LOCF*) ([2]; data Group 10: sibutramine 10 mg/day, intensive lifestyle management, 12 weeks) | overall average weight loss of all groups ([2]; data Groups 3-7: 10 mg/day sibutramine, moderate lifestyle management, 12 weeks) [kg] | average weight loss [2, 3] [kg] | improvement of average weight loss by the higher 15 mg dose [2, 3]
CCCCCCCCCCC[C@H](C[C@H]1OC(=O)[C@H]1CCCCCC)OC(=O)[C@@H](CC(C)C)NC=O [orlistat, (2S,3S,5S)-5-[(S)-2-formamido-4-methylvaleryloxy]-2-hexyl-3-hydroxyhexadecanoic acid lactone] | about one third |  |  |  |  |  |  |  |  |  |  |  |  |  | 
CC(C)CC(N(C)C)C1(c2ccc(Cl)cc2)CCC1 (stereo not drawn) [sibutramine, N,N-dimethyl-1-[1-(4-chlorophenyl)cyclobutyl]-3-methylbutylamine] |  | -3.9 | 3.7 | -6.2 | 3.7 | -3.7 | -5 | -4.2 | -6.4 | -5.6 | 8.4 | -8.4 | 4.6 | 6.0 | approximately 25%
